The source of these data is US4444782A, “2(4-tert.-Butyl-2,6-dichlorophenyl-imino)imidazolidine and use as an anti-hypertension agent” (SmithKline Beckman Corporation, priority 1982, dated 1984).

Series [1] relates to alpha3 (vascular postjunctional alpha2) receptor, dog saphenous vein. The settings on record: for α2/α3 Selectivity: ratio of ED50 guinea pig atrium to ED50 dog saphenous vein. Here is the method: (§1) Another test system to assay for vascular postjunctional alpha2 stimulation utilizes the dog saphenous vein. This activity may be called alpha3 stimulation. The protocol for this test is as follows:
(§2) Mongrel dogs of either sex are anesthetized with sodium pentobarbital (50 mg/kg, i.p.). After the dog is anesthetized, the saphenous vein is located and cleaned of connective tissue, a 2-4 cm. segment is tied at both ends and removed. The venous segment is placed in a dish of cold Krebs solution and additional cleaning is performed to remove as much non-vascular tissue as possible. Ring segments (3-4 mm.) are then cut from the vessel.
(§3) The vessel is mounted in a superfusion chamber as known to the art for the rabbit ear artery except that the insert holding the venous ring has two parallel 0.5 mm tungsten wires separated by 2 mm. The tissue is slipped over these parallel wires and the insert attached to the main block. A third tungsten wire is then inserted through the ring and attached to a force-displacement transducer.
(§4) An initial tension of 4 gm is placed on the tissue, with tension being adjusted until a stable resting tension of 2 gm. is produced. Concentration-effect curves are determined as described in the publication referred to above for the ear artery segment.

Series [2] addresses T1, alpha3 (vascular postjunctional alpha2) receptor, dog saphenous vein (Canis lupus familiaris, UniProt A0A8I3Q7S8).
T1 construct: the saphenous vein is located and cleaned of connective tissue; from tissue; host or cells: saphenous vein rings of mongrel dogs
T1 sequence (A0A8I3Q7S8 1-427): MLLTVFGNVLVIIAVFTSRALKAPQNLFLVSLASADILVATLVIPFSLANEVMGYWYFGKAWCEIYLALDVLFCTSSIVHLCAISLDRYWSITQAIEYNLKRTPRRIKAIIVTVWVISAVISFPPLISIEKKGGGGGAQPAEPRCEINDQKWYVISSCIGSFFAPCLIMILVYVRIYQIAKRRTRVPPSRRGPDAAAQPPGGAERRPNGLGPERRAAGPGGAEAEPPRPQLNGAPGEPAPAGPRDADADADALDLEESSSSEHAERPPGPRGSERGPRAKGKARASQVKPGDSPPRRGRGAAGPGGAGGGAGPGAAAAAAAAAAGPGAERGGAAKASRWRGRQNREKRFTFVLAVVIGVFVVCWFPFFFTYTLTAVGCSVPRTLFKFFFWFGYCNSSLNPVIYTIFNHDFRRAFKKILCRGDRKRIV
Conditions: for relative potency, alpha3: dog saphenous vein, clonidine versus the compound of this invention. Here is the method:
as §1, §2, §3, §4

Series [3] addresses T2, alpha2 receptor (guinea pig atrium) (Cavia porcellus, UniProt Q60474).
T2 construct: isolated, superfused guinea pig left atrium; from tissue; host or cells: guinea pig left atrium (sympathetic nerve endings)
T2 sequence (Q60474 1-464): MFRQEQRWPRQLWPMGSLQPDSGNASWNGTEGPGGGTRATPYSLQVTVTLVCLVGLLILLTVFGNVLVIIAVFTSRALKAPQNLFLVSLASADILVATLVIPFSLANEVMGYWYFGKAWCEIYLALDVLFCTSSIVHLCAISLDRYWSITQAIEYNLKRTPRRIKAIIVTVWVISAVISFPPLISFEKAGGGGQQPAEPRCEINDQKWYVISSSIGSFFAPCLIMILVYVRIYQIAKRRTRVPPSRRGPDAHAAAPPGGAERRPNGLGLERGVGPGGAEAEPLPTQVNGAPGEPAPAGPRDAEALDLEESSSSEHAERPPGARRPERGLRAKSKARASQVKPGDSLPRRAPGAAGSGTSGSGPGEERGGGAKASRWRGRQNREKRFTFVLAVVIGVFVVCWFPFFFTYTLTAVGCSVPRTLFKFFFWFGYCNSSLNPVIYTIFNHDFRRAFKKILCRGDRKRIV
The series can be described thus: isolated, superfused guinea pig left atrium (prejunctional alpha2 agonism). An excerpt:
The second type of vascular alpha receptor site to be reported is located prejunctionally on sympathetic neurons and called alpha2 sites. The protocol employed for determining this activity is the isolated, superfused guinea pig left atrium described in the cited Hieble publication.

Series [4] has as its target alpha1 receptor (rabbit ear artery). The series can be described thus: isolated perfused rabbit ear artery (postjunctional alpha1 agonism). The settings on record: for EC50: isolated perfused rabbit ear artery, read-out: ED50 Alpha1 Rabbit Ear Artery. An excerpt: Since the early work on clonidine, at least two types of vascular alpha receptor sites have been identified. A postjunctional, or postsynaptic, alpha1 receptor was initially reported. […] In the alpha test protocol in the isolated perfused rabbit ear artery described by J. P. Hieble et al., Arch.

The nature of series [5]: potentiation of hexabarbitol induced sleep time (sedation). It counts as in vivo.
A further series relates to normotensive rat. Kind of series: reduction of blood pressure in the normotensive rat model. In kind it is in vivo. Conditions: for ED30: iv, read-out: EC30 for the reduction of blood pressure (hypotensive effect). Here is the method: In the normotensive rat model, the I.V. EC30 for the reduction of blood pressure was 9.8 μg/kg.
The conditions of series [6]: cited literature; cited from earlier work.

Structures are written as SMILES. Counter-ions that a name gives are not always drawn. Like-named read-outs stand apart in the source and are kept apart here.

The ED50 is the midpoint of the dose-response relation.

With `CC(C)(C)c1cc(Cl)c(N=C2NCCN2)c(Cl)c1` [COMPOUND I, 2-(4-tert.-butyl-2,6-dichlorophenylimino)imidazolidine], the “selectivity for the postsynaptic receptor in vitro (fold)” value in series [1] (post- versus presynaptic receptor, in vitro, Table A) is given as 30. Further, the “α2/α3 Selectivity” value in series [1] came to 30. Further, the EC50 in series [2] stood at 26 nM; in series [3] (isolated superfused guinea pig left atrium, read-out: ED50 Alpha2 Guinea Pig Atrium), 790 nM; in series [4] it was 30 nM. Moreover, the “relative potency, alpha3” value in series [2] is “about equipotent”. Further, the “agonist potency relative to clonidine, alpha1” value in series [4] (rabbit ear artery, compared with clonidine) is listed as “eight times more potent”. Further, in series [5] (ip, read-out: ED50 for potentiation of hexabarbitol induced sedation), the ED50 stood at 260 µg/kg. The “sedative side effects, in words” value in series [5] (summary statement) was “devoid of the sedative side effects”. Besides, the ED30 in the series with normotensive rat (Rattus norvegicus) was found to be 9.8 µg/kg.

As to `CCc1ccc(N=C2NCCN2)c(Cl)c1` [2-(2-Chloro-4-ethylphenylimino)-imidazolidine], the “sedation, in words (literature)” value in series [6] was “very strong sedative or sleep inducer”.

For `Clc1cccc(Cl)c1NC1=NCCN1` [CLONIDINE HYDROCHLORIDE], the “α2/α3 Selectivity” value in series [1] stood at 1. For the same compound, the EC50 in series [2] (dog saphenous vein ring, read-out: ED50 Alpha3 Dog Saphenous Vein) came to 16 nM; in series [3], 17 nM; in series [4], 290 nM.

With `Clc1cccc(Cl)c1N=C1NCCN1` [clonidine, 2-(2,6-dichlorophenylimino)-2-imidazolidine], the “specificity between pre- and post-synaptic receptor subtypes, in words” value in series [1] (in vitro, Table A) was “very little specificity”. The “α2/α3 Selectivity” value in series [1] turned out to be 1. For the same compound, the “relative potency, alpha3” value in series [2] is reported as “about equipotent”. The “activity relative to the compound of this invention, alpha2 (times as active)” value in series [3] (guinea pig left atrium) is on record as 46. For the same compound, the “sedation, in words (literature)” value in series [6] is on record as “heavy sedation”. Moreover, the “marked sedation at a dose lower than the compound of this invention (times lower)” value in series [5] (compared with the compound of this invention) was about 30. For the same compound, the ED50 in series [5] (iv, read-out: ED50 in the hexabarbitol sleep time assay) is 9.6 µg/kg. Further, the “hypotensive potency relative to the compound of this invention” value in the series on normotensive rat (clonidine compared with the compound of this invention) was “only slightly more potent”. Moreover, in the series with normotensive rat (normotensive rat, I.V.), the ED30 amounted to 2.3 µg/kg.
